The numbers were not newly measured in patent US9642863B2, “Methods for treating chronic or unresolvable pain and/or increasing the pain threshold in a subject and pharmaceutical compositions for use therein” (White Mountain Pharma, Inc., priority 2010, dated 2017), which cites them from elsewhere.

Each structure is given as a SMILES string.

Data set [1] has as its system chronic pain subjects on maintenance opioids. To be noted: four patients, testosterone adjunctive to primary opioid therapy, anecdotal.
For data set [2], the system named is female-to-male transsexuals. Conditions: doses of testosterone at or above the male reference range.
The next data set concerns women with fibromyalgia. To be noted: female fibromyalgia patients, transdermal testosterone.
For data set [3] the following is noted: genotypic females dosed with testosterone, 36 months.
In a further data set the test system is rats. To be noted: treatment with testosterone.

In the case of `C[C@]12CC[C@H]3[C@@H](CCC4=CC(=O)CC[C@@]43C)[C@@H]1CC[C@@H]2O` [testosterone], in data set [1], the quality of life result is “improved quality of life”. Besides, the side effects entry in data set [2] was “develop hirsutism and male-like increased risk for cardiovascular disease and diabetes”. For the same compound, the “fibromyalgia muscle tender point pain” value in the data set with women with fibromyalgia is listed as “significantly improve”. In addition, the “stable serum total testosterone levels” value in data set [3] is on record as “about 620+/−130 ng/dL”. Also, the “pain responses to the formalin test” value with rats was “decreased pain responses”.
